Among the data in patent US8012956B2, “Tropane compounds” (Exelixis, Inc., priority 2007, dated 2011) are IC50 values, retold here.

Each structure is given as a SMILES string.

For this experiment, the target named is HSP90 (Homo sapiens, UniProt P07900). The experiment in a line: HSP90 inhibition (HSP90 IC50). It is filed as biochemical.
The IC50 is the concentration at which inhibition is half-maximal. A low value points to greater potency. Regarding `COc1cccc(C(=O)NC2CC3CCC(C2)N3c2ccc(C(=O)N[C@@H](C)c3ccccc3)cn2)c1C` (stereo partly drawn) [6-[3-endo-({[2-methyl-3-(methyloxy)phenyl]carbonyl}amino)-8-azabicyclo[3.2.1]oct-8-yl]-N-[(1S)-1-phenylethyl]pyridine-3-carboxamide], the IC50 is less than 500 nM. The figure for `NC(=O)c1ccc(C(=O)NC2CC3CCC(C2)N3c2ccc(C(=O)CC(O)c3ccccc3)cn2)cc1NCC1CC1` (stereo not drawn) [2-[(cyclopropylmethyl)amino]-N4-{8-[5-(3-hydroxy-3-phenylpropanoyl)pyridin-2-yl]-8-azabicyclo[3.2.1]oct-3-endo-yl}benzene-1,4-dicarboxamide] is 500 to 999 nM; for `COc1cccc(C(=O)N[C@H]2C[C@H]3CC[C@@H](C2)N3c2ccc(C(=O)NCc3c(F)cccc3OC)cn2)c1C` [N-{[2-fluoro-6-(methyloxy)phenyl]methyl}-6-[3-endo-({[2-methyl-3-(methyloxy)phenyl]carbonyl}amino)-8-azabicyclo[3.2.1]oct-8-yl]pyridine-3-carboxamide] it is 1000 to 2000 nM; for `COc1cccc(C(=O)NC2CC3CCC(C2)N3c2ccc(C(=O)N[C@@H](C)c3ccc(Cl)cc3)cn2)c1C` (stereo partly drawn) [N-[(1S)-1-(4-chlorophenyl)ethyl]-6-[3-endo-({[2-methyl-3-(methyloxy)phenyl]carbonyl}amino)-8-azabicyclo[3.2.1]oct-8-yl]pyridine-3-carboxamide] it is less than 500 nM. Take `COc1cccc(C(=O)N[C@H]2C[C@H]3CC[C@@H](C2)N3c2ccc(C(=O)NCCCOC(C)C)cn2)c1C` [N-{3-[(1-methylethyl)oxy]propyl}-6-[3-endo-({[2-methyl-3-(methyloxy)phenyl]carbonyl}amino)-8-azabicyclo[3.2.1]oct-8-yl]pyridine-3-carboxamide]: the IC50 was in the range of 1000 to 2000 nM. `COc1ccc(CNC(=O)c2ccc(N3[C@@H]4CC[C@H]3C[C@@H](NC(=O)c3cccc(OC)c3C)C4)nc2)cc1` [6-[3-endo-({[2-methyl-3-(methyloxy)phenyl]carbonyl}amino)-8-azabicyclo[3.2.1]oct-8-yl]-N-{[4-(methyloxy)phenyl]methyl}pyridine-3-carboxamide]: the IC50 is less than 500 nM.

In the case of `COc1cccc(C(=O)N[C@H]2C[C@H]3CC[C@@H](C2)N3c2ccc(C(=O)NCc3c(F)cccc3Cl)cn2)c1C` [N-[(2-chloro-6-fluorophenyl)methyl]-6-[3-endo-({[2-methyl-3-(methyloxy)phenyl]carbonyl}amino)-8-azabicyclo[3.2.1]oct-8-yl]pyridine-3-carboxamide], the IC50 was less than 500 nM. Consider `Cc1cc(C(N)=O)c(NCC2CCCC2)cc1C(=O)N[C@H]1C[C@H]2CC[C@@H](C1)N2c1ccc(C(=O)C2CC2)cn1` [5-[(cyclopentylmethyl)amino]-N-{8-[5-(cyclopropylcarbonyl)pyridin-2-yl]-8-azabicyclo[3.2.1]oct-3-endo-yl}-2-methylbenzene-1,4-dicarboxamide], for which the IC50 was less than 500 nM. The figure for `NC(=O)c1ccc(C(=O)N[C@H]2C[C@H]3CC[C@@H](C2)N3c2ccc(C(=O)CCN3CCCCC3)cn2)cc1NCC1CC1` [2-[(cyclopropylmethyl)amino]-N4-{8-(5-(3-piperidin-1-ylpropanoyl)pyridin-2-yl]-8-azabicyclo[3.2.1]oct-3-endo-yl}benzene-1,4-dicarboxamide] is less than 500 nM; for `COc1cccc(C(=O)N[C@H]2C[C@H]3CC[C@@H](C2)N3c2ccc(C(=O)NCCCN(C)C)cn2)c1C` [N-[3-(dimethylamino)propyl]-6-[3-endo-({[2-methyl-3-(methyloxy)phenyl]carbonyl}amino)-8-azabicyclo[3.2.1]oct-8-yl]pyridine-3-carboxamide] it is 500 to 999 nM. The figure for `Cc1cc(C(N)=O)c(NC2CCCC2)cc1C(=O)N[C@H]1C[C@H]2CC[C@@H](C1)N2c1ccc(C(=O)C2CC2)cn1` [5-(cyclopentylamino)-N-{8-[5-(cyclopropylcarbonyl)pyridin-2-yl]-8-azabicyclo[3.2.1]oct-3-endo-yl}-2-methylbenzene-1,4-dicarboxamide] is less than 500 nM. `COc1cccc(C(=O)N[C@H]2C[C@H]3CC[C@@H](C2)N3c2ccc(C(=O)Nc3ccc(F)cc3)cn2)c1C` [N-(4-fluorophenyl)-6-[3-endo-({[2-methyl-3-(methyloxy)phenyl]carbonyl}amino)-8-azabicyclo[3.2.1]oct-8-yl]pyridine-3-carboxamide]: the IC50 lay in the range of 1000 to 2000 nM. With `CC[C@H](C)Nc1cc(C(=O)NC2CC3CCC(C2)N3c2ccc(C(C)=O)cn2)ccc1C(N)=O` (stereo partly drawn) [N4-[8-(5-acetylpyridin-2-yl)-8-azabicyclo[3.2.1]oct-3-endo-yl]-2-{[(1S)-1-methylpropyl]amino}benzene-1,4-dicarboxamide] the figure was less than 500 nM; with `Cc1cc(C(N)=O)c(NC2CCC2)cc1C(=O)N[C@H]1C[C@H]2CC[C@@H](C1)N2c1ccc(C(=O)C2CC2)cn1` [5-(cyclobutylamino)-N-{8-[5-(cyclopropylcarbonyl)pyridin-2-yl]-8-azabicyclo[3.2.1]oct-3-endo-yl}-2-methylbenzene-1,4-dicarboxamide], less than 500 nM. With `COc1ccc([C@H](NC(=O)c2ccc(N3C4CCC3CC(NC(=O)c3cccc(OC)c3C)C4)nc2)C(=O)O)cc1` (stereo partly drawn) [(2S)-[({6-[3-endo-({[2-methyl-3-(methyloxy)phenyl]carbonyl}amino)-8-azabicyclo[3.2.1]oct-8-yl]pyridin-3-yl}carbonyl)amino][4-(methyloxy)phenyl]ethanoic acid] the figure was 1000 to 2000 nM; with `COc1cccc(C(=O)N[C@H]2C[C@H]3CC[C@@H](C2)N3c2ccc(C(=O)Nc3ccc(C)cc3)cn2)c1C` [6-[3-endo-({[2-methyl-3-(methyloxy)phenyl]carbonyl}amino)-8-azabicyclo[3.2.1]oct-8-yl]-N-(4-methylphenyl)pyridine-3-carboxamide], 1000 to 2000 nM.

Compound `COc1cccc(C(=O)N[C@H]2C[C@H]3CC[C@@H](C2)N3c2ccc(C(=O)NC3CC3)cn2)c1C` [N-cyclopropyl-6-[3-endo-({[2-methyl-3-(methyloxy)phenyl]carbonyl}amino)-8-azabicyclo[3.2.1]oct-8-yl]pyridine-3-carboxamide] displayed an IC50 of 1000 to 2000 nM. The figure for `CC[C@@H](C)Nc1cc(C(=O)NC2CC3CCC(C2)N3c2ccc(C(=O)C3CC3)cn2)c(Br)cc1C(N)=O` (stereo partly drawn) [2-bromo-N-{8-[5-(cyclopropylcarbonyl)pyridin-2-yl]-8-azabicyclo[3.2.1]oct-3-endo-yl}-5-{[(1R)-1-methylpropyl]amino}benzene-1,4-dicarboxamide] is less than 500 nM. `COc1cc(Nc2cc(C(=O)NC3CC4CCC(C3)N4c3ccc(C(=O)N[C@@H](C)c4ccc(N5CCN(C)CC5)cc4)cn3)ccc2C(N)=O)cc(OC)c1OC` (stereo partly drawn) [N4-(8-{5-[({(1S)-1-[4-(4-methylpiperazin-1-yl)phenyl]ethyl}amino)carbonyl]pyridin-2-yl}-8-azabicyclo[3.2.1]oct-3-endo-yl)-2-{[3,4,5-tris(methyloxy)phenyl]amino}benzene-1,4-dicarboxamide] registered an IC50 of less than 500 nM.

In turn, `COc1cccc(C(=O)N[C@H]2C[C@H]3CC[C@@H](C2)N3c2ccc(C(=O)NCc3c(F)cc(F)cc3F)cn2)c1C` [6-[3-endo-({[2-methyl-3-(methyloxy)phenyl]carbonyl}amino)-8-azabicyclo[3.2.1]oct-8-yl]-N-[(2,4,6-trifluorophenyl)methyl]pyridine-3-carboxamide] registered an IC50 of less than 500 nM. `COc1cccc(C(=O)N[C@H]2C[C@H]3CC[C@@H](C2)N3c2ccc(C(=O)NCc3ccc(N4CCN(C)CC4)cc3)cn2)c1C` returned an IC50 of less than 500 nM. With `COc1cccc(C(=O)N[C@H]2C[C@H]3CC[C@@H](C2)N3c2ccc(C(=O)NCC(C)C)cn2)c1C` [6-[3-endo-({[2-methyl-3-(methyloxy)phenyl]carbonyl}amino)-8-azabicyclo[3.2.1]oct-8-yl]-N-(2-methylpropyl)pyridine-3-carboxamide] the figure was 1000 to 2000 nM.

Compound `COc1cccc(C(=O)N[C@H]2C[C@H]3CC[C@@H](C2)N3c2ccc(C(=O)NCCCC(OC)OC)cn2)c1C` [N-[4,4-bis(methyloxy)butyl]-6-[3-endo-({[2-methyl-3-(methyloxy)phenyl]carbonyl}amino)-8-azabicyclo[3.2.1]oct-8-yl]pyridine-3-carboxamide] showed a concentration for half-maximal inhibition (IC50) of 1000 to 2000 nM. The figure for `COc1cccc(C(=O)N[C@H]2C[C@H]3CC[C@@H](C2)N3c2ccc(C(=O)NCc3ccc(Cl)cc3)cn2)c1C` [N-[(4-chlorophenyl)methyl]-6-[3-endo-({[2-methyl-3-(methyloxy)phenyl]carbonyl}amino)-8-azabicyclo[3.2.1]oct-8-yl]pyridine-3-carboxamide] is 500 to 999 nM. On to `CCCc1c(OC)cccc1C(=O)N[C@H]1C[C@H]2CC[C@@H](C1)N2c1ccc(C(=O)NCc2ccccc2)cn1` [6-[3-endo-({[3-(methyloxy)-2-propylphenyl]carbonyl}amino)-8-azabicyclo[3.2.1]oct-8-yl]-N-(phenylmethyl)pyridine-3-carboxamide], for which the IC50 lay in the range of 2000 to 10000 nM. With `COc1cccc(C(=O)N[C@H]2C[C@H]3CC[C@@H](C2)N3c2ccc(C(N)=O)cn2)c1Cl` [6-[3-endo-({[2-chloro-3-(methyloxy)phenyl]carbonyl}amino)-8-azabicyclo[3.2.1]oct-8-yl]pyridine-3-carboxamide] the figure was 2000 to 10000 nM. The figure for `CCCNC(=O)c1ccc(N2[C@@H]3CC[C@H]2C[C@@H](NC(=O)c2cccc(OC)c2C)C3)nc1` [6-[3-endo-({[2-methyl-3-(methyloxy)phenyl]carbonyl}amino)-8-azabicyclo[3.2.1]oct-8-yl]-N-propylpyridine-3-carboxamide] is 1000 to 2000 nM; for `CCCCCNc1cc(C(=O)N[C@H]2C[C@H]3CC[C@@H](C2)N3c2ccc(C(C)=O)cn2)c(C)cc1C(N)=O` [N-[8-(5-acetylpyridin-2-yl)-8-azabicyclo[3.2.1]oct-3-endo-yl]-2-methyl-5-(pentylamino)benzene-1,4-dicarboxamide] it is less than 500 nM; for `Cc1cc(C(N)=O)c(NC(C(C)C)C(C)C)cc1C(=O)N[C@H]1C[C@H]2CC[C@@H](C1)N2c1ccc(C(=O)C2CC2)cn1` [N-{8-[5-(cyclopropylcarbonyl)pyridin-2-yl]-8-azabicyclo[3.2.1]oct-3-endo-yl}-2-methyl-5-{[2-methyl-1-(1-methylethyl)propyl]amino}benzene-1,4-dicarboxamide] it is less than 500 nM.
